Source: patent US20240301499A1, “METHOD FOR IDENTIFYING HARD-TO-TREAT OSTEOSARCOMA PATIENTS AT DIAGNOSIS AND IMPROVING THEIR OUTCOME BY PROVIDING NEW THERAPY” (Institut Gustave Roussy, priority 2021, published 2024)
Read-outs that look alike come from different tables or passages of the source.

Experiments:
[1] = tested on: 7 human osteosarcoma lines; assay: MTS cell proliferation assay, 48 and 72 h (first Example 2); assay type: cell-based; settings: MTS test
Method: HOS, 143B, MG-63, U2OS and IOR/OS18 cell lines were seeded at 5,000 cells per well, Saos-2, Saos-2-B and IOR/OS14 cell lines were seeded at 10,000 cells per well in a 96-well plate containing a final volume of 100 μl/well and left to settle overnight in DMEM with 10% fetal calf serum.
The cells were treated with different drugs (PPARγ agonists troglitazone (TGZ) or rosiglitazone (RGZ), or PPARγ antagonist T0070907, dissolved in DMSO) at concentrations ranging from 0 μmol/l to 100 μmol/L. The control (untreated cells) get the same volume of DMSO when the cells are treated (10 μl per 1 ml). Cell viability was determined 48 and 72 hours after exposure. Old medium was removed and a solution with MTS/new medium (20 μl of MTS solution−final concentration 0.33 mg/ml) (CellTiter 96 Aqueous One Solution Cell Proliferation Assay; Promega Corporation, Charbonnieres, France) was added. A set of wells were prepared only with MTS/new medium for background subtraction at the same time. An incubation from 1 to 7 hours at 37° C. (cell line metabolism dependent) was performed follow by a colorimetric measurement at 490 nm in an automatic plate reader (Elxb808; Fisher Bioblock Scientific SAS, Illkirch, France).

HOS cells [2] = assay: RNA sequencing of treated HOS cells; assay type: cell-based, human; settings: T0070907 at 25 μM for 24 h
HOS cells [3] = assay: In vitro cell viability (MTS assay), HOS; assay type: cell-based, human
Method: (§1) Parental HOS, 143B, MG-63, IOR/OS18, resistant derived HOS R/MTX and derived PPARγ shRNA or overexpressing PPARγ cell lines were seeded at 5000 cells/well, parental, Saos2, Saos-2B, IOR/OS14, resistant derived HOS R/DOXO and derived PPARγshRNA or overexpressing PPARγ lines were seeded at 10,000 cells/well in a 96-well plate in DMEM supplemented with 10% FBS for both assays.
(§2) The day after seeding, cells were incubated in the presence of a range of drug concentrations for 72 h (from 0 to 100 μmol/L for DOXO, MAF; 0 to 500 μmol/L for MTX, T0070907, Rosiglitazone (RGZ) and Troglitazone (TGZ)). Cell viability was evaluated using the CellTiter 96 Aqueous One Solution Cell Proliferation Assay (MTS assay) (Promega, Charbonnieres, France), according to the manufacturer instructions. The half-maximal inhibitory concentration (IC50) was determined using the GraphPad Prism5 software (Graphpad Software Inc., California, USA).

MAP-217 PT PDX model = assay: Osteosarcoma orthotopic (paratibial) PDX model MAP-217; assay type: in vivo, NSG mice; settings: IP 10 mg/kg/injection daily
Description: Experiments were validated by the CEEA26, Ethic committee (approval number APAFIS #27183-2020091414229028 v3) and carried out under conditions established by the European Community (Directive 2010/63/UE). Animals were purchased at Gustave Roussy (Villejuif, France) and maintained in the respective animal facilities following standard animal regulation, health and care, and ethical controls. Osteosarcoma PDXs were established from relapsed patients by transplantation in immunocompromised NSG mice and considered as established when tumor growth was sustained after at least two in vivo passages. […] Clinical status, tumor uptake and tumor growth will be evaluated one to 3 times a week. Paratibial tumor was detected by palpation and tumor gross appearance (caliper measurements). […] Mice were then anesthetized and bone structure alterations were analyzed by CTscan imaging. […]
Groups of 8 animals bearing the same OTS orthotopic PDX model were treated from day 14 after tumor implantation with intraperitoneal (IP) injection (volume of 10 m/kg) every day with either T0070907 (10 mg/Kg/injection) or with vehicle (saline, control group). […] Clinical status, tumor uptake and tumor growth were evaluated each two days. Paratibial tumors were detected by palpation, tumor gross apparition (caliper measurements). […]

[4] = tested on: 8 osteosarcoma parental cell lines; assay: In vitro cell viability (MTS assay), 72 h; assay type: cell-based, human
Method: as §1, §2

O=C(Nc1ccncc1)c1cc([N+](=O)[O-])ccc1Cl [T0070907]
IC50 ([1]; read-out: IC50 (cell viability), range over cell lines): 9 to 18 µM
IC50 ([1]; read-out: median IC50 (cell viability)): 20 µM
RNA sequencing: transcription programs induced (HOS cells [2]): induction of pro-apoptotic and osteoblastic differentiation programs
IC50 (HOS cells [3]): 25 µM
delay to reach 2.5 time the initial leg volume, higher compared to control (MAP-217 PT PDX model): 20%
lung metastases (MAP-217 PT PDX model; IHC human Ki67 at sacrifice): decreased lung metastases in number and size
IC50 ([4]; 8 osteosarcoma parental cell lines, read-out: IC50, range over cell lines): 9.3 to 37.4 µM
IC50 ([4]; all 8 osteosarcoma parental cell lines, read-out: Median IC50): 20 µM
